Results taken from EP1052287A2, “Complex for transferring an anionic substance of interest into a cell” (TRANSGENE S.A., priority 1999, dated 2000).
Where no end group is shown, it is not given here.

Assays:
plasmid pTG11236 = test: Gel retardation assay (Example 4); format: binding
Experimental: (§1) Gel retardation assay was performed with C1qA (4-26) (SEQ ID NO:1) in several buffers: PBS, TBS, 5% glucose, or ultrafiltrated serum (YM10 Amicon membrane). DNA and peptides have been mixed at charge ratios [-/+] of [1:4], [1:1] and [1:0.2].
Gel retardation assay was performed with peptides SEQ ID NO: 1, SEQ ID NO: 2, SEQ ID NO: 3, SEQ ID NO: 7, SEQ ID NO: 8, SEQ ID NO: 9, SEQ ID NO: 10 , SEQ ID NO: 11, SEQ ID NO: 12, SEQ ID NO: 13, in various media : 5% glucose, 6% Elohes (Fresenius Kabi) and ultrafiltrated serum (YM10 Amicon membrane). Technical conditions are similar to Example 2. DNA and peptides have been mixed at 0.36, 1.44 and 1.8 nmoles of peptide per µg of DNA which correspond to the following charge ratios N/P: […]

[1] = Size of peptide/DNA complexes by quasi-elastic light scattering; format: physicochemical; conditions: complexes (-/+) [1:4], 6 µg DNA, 500 µl
Experimental: Sizes of complexes prepared with a plasmid DNA (PTG11033; see EP-A 890 32, 9.6 kb) and the C1qA (4-26) peptide (SEQ ID NO:1)see Table I) were evaluated. Complexes were formulated either in 5% glucose or in ultrafiltrated foetal calf serum (YM10 Amicon membrane). Formulation was made in 500 µl buffer, with 6 µg DNA and the quantity of peptide necessary to form a [1:4], [-:+] complex. As a control a polylysine SV40 NLS peptide was used. […] When oxidized, the dimerized C1qA peptide could form even smaller complexes, whatever the formulation buffer used. The reasonable sizes obtained in ultrafiltrated serum with C1qA peptides is an advantage for the use of this peptide rather than polylysine derivatives.
Complexes (-/+):[1:4], 6 µg DNA, 500 µl. Size measures: quasi-elastic light scattering, COULTER N4+.

plasmid pTGl1033 = test: Gel retardation assay, agarose gel electrophoresis (Example 2); format: binding
Experimental: as §1

[2] = 1.44 nmoles of peptide per µg of DNA
[3] = 1.8 nmoles of peptide per µg of DNA

Row | Substance | retardation of the complexed plasmid DNA (plasmid pTG11236; [2]) | retardation of the complexed plasmid DNA (plasmid pTG11236; [3]) | Sizes in 5% glucose [1] | Sizes in ultrafiltrated serum [1] | gel retardation of DNA (plasmid pTGl1033; charge ratio [-/+] [1:1]) | gel retardation of DNA (plasmid pTGl1033; charge ratio [-/+] [1:4], PBS, TBS, 5% glucose or ultrafiltrated serum, 0.8% agarose, TBE)
1 | SEQ ID NO: 1: synthetic polypeptide consisting of SEQ ID NO:1, C1qA (4-26) of the C1q subunit of C1 complement factor (CRAPDGKKGEAGRPGRRGRPGLK; UniProt P02745 26-48, looked up, fragment) | complete retardation | complete retardation | 1µm | 300-500 nm | significative retardation | strong association of DNA to the peptides
2 | SEQ ID NO: 3: C1qA (76-92) peptide (GIKGTKGSPGNIKDQPR; UniProt P02745 98-114, looked up, fragment) | complete retardation | complete retardation |  |  |  | 
3 | SP-1052 oxidized: oxidized, dimerized C1qA (4-26) peptide (CRAPDGKKGEAGRPGRRGRPGLK; also: oxidized disulfide-linked dimer; UniProt P02745 26-48, looked up, fragment) |  |  | 200 nm | 300 nm |  | 
